Legend:
Assay type in all cases: cell-based
human TLR9 = molecular target: T1, human TLR9 (Homo sapiens, UniProt Q9NR96); test: TLR9 inhibition reporter assay (HEK-Blue SEAP); settings: HEK-Blue cells overexpressing human TLR9, ODN2006 5 nM, 22 hour incubation
T1 construct: host or cells: HEK-Blue cells (HEK293-derived reporter line)
T1 sequence (Q9NR96 26-1032): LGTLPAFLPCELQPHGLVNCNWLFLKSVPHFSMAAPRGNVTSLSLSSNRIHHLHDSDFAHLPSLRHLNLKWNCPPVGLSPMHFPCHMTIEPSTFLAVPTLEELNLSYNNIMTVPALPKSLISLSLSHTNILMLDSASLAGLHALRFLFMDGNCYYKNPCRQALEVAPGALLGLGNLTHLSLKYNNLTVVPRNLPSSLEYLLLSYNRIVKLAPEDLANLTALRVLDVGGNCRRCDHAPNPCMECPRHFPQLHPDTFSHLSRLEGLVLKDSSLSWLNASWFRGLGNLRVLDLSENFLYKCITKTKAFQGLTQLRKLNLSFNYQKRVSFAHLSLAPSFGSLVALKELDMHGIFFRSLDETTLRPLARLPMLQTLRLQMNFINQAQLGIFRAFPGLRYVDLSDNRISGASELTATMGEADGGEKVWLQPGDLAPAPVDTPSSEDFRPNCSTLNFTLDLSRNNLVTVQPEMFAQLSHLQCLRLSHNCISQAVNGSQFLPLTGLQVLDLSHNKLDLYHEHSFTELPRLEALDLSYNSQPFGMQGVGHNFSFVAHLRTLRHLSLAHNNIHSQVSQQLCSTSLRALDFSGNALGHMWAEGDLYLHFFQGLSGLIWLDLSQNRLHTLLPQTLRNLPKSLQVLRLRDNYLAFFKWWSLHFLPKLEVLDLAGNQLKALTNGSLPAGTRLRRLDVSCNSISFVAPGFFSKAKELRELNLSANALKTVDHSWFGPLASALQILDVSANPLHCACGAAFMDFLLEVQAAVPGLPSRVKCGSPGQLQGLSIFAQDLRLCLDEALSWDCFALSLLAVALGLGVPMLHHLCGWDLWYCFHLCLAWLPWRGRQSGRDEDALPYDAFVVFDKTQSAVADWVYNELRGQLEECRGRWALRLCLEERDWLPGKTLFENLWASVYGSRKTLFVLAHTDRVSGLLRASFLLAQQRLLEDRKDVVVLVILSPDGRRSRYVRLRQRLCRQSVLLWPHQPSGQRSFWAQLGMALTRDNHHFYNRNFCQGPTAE
Protocol: (§1) TLR7/8/9 Inhibition Reporter Assays
(§2) HEK-Blue™-cells (Invivogen) overexpressing human TLR7, TLR8 or TLR9 receptors were used for screening inhibitors of these receptors using an inducible SEAP (secreted embryonic alkaline phosphatase) reporter gene under the control of the IFN-β minimal promoter fused to five NF-κB and AP-1-binding sites. Briefly, cells are seeded into Greiner 384 well plates (15000 cells per well for TLR7, 20,000 for TLR8 and 25,000 for TLR9) and then treated with test compounds in DMSO to yield a final dose response concentration range of 0.05 nM-50 μM. After a 30 minute compound pre-treatment at room temperature, the cells are then stimulated with a TLR7 ligand (gardiquimod at a final concentration of 7.5 μM), TLR8 ligand (R848 at a final concentration of 15.9 μM) or TLR9 ligand (ODN2006 at a final concentration of 5 nM) to activate NF-κB and AP-1 which induce the production of SEAP. After a 22 hour incubation at 37° C., 5% CO2, SEAP levels are determined with the addition of HEK-Blue™ Detection reagent (Invivogen), a cell culture medium that allows for detection of SEAP, according to manufacturer's specifications. The percent inhibition is determined as the % reduction in the HEK-Blue signal present in wells treated with agonist plus DMSO alone compared to wells treated with a known inhibitor.

human TLR7 = molecular target: T2, human TLR7 (Homo sapiens, UniProt Q9NYK1); test: TLR7 inhibition reporter assay (HEK-Blue SEAP); settings: HEK-Blue cells overexpressing human TLR7, gardiquimod 7.5 μM, 22 hour incubation
T2 construct: host or cells: HEK-Blue cells (HEK293-derived reporter line)
T2 sequence (Q9NYK1 27-1049): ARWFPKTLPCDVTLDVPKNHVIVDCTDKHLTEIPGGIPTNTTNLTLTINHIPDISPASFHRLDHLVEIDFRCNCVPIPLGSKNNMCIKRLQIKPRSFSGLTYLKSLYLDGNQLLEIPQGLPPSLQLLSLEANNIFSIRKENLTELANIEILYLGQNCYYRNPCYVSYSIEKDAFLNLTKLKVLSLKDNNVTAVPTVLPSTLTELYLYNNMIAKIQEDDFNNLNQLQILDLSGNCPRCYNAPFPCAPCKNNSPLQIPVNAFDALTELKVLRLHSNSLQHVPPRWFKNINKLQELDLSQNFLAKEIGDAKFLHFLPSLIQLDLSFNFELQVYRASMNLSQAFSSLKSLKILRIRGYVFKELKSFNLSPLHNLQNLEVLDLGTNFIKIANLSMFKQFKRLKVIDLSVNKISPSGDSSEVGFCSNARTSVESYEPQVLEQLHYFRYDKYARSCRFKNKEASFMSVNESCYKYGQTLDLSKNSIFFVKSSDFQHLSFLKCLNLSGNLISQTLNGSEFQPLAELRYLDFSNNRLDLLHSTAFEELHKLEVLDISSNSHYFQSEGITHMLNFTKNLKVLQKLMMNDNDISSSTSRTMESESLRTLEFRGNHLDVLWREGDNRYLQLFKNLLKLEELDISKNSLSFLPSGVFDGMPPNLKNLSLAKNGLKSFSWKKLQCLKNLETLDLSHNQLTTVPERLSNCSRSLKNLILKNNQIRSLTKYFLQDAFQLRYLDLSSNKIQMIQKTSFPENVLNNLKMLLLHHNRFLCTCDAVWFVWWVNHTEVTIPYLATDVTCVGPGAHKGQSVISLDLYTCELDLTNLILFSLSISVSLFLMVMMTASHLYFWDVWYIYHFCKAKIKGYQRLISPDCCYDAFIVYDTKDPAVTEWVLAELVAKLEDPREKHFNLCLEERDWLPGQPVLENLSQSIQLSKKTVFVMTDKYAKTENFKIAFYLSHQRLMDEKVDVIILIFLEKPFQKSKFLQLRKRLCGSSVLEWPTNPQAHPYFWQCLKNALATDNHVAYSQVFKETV
Protocol: as §1, §2

human TLR8 = molecular target: T3, human TLR8 (Homo sapiens, UniProt Q9NR97); test: TLR8 inhibition reporter assay (HEK-Blue SEAP); settings: HEK-Blue cells overexpressing human TLR8, R848 15.9 μM, 22 hour incubation
T3 construct: host or cells: HEK-Blue cells (HEK293-derived reporter line)
T3 sequence (Q9NR97 27-1041): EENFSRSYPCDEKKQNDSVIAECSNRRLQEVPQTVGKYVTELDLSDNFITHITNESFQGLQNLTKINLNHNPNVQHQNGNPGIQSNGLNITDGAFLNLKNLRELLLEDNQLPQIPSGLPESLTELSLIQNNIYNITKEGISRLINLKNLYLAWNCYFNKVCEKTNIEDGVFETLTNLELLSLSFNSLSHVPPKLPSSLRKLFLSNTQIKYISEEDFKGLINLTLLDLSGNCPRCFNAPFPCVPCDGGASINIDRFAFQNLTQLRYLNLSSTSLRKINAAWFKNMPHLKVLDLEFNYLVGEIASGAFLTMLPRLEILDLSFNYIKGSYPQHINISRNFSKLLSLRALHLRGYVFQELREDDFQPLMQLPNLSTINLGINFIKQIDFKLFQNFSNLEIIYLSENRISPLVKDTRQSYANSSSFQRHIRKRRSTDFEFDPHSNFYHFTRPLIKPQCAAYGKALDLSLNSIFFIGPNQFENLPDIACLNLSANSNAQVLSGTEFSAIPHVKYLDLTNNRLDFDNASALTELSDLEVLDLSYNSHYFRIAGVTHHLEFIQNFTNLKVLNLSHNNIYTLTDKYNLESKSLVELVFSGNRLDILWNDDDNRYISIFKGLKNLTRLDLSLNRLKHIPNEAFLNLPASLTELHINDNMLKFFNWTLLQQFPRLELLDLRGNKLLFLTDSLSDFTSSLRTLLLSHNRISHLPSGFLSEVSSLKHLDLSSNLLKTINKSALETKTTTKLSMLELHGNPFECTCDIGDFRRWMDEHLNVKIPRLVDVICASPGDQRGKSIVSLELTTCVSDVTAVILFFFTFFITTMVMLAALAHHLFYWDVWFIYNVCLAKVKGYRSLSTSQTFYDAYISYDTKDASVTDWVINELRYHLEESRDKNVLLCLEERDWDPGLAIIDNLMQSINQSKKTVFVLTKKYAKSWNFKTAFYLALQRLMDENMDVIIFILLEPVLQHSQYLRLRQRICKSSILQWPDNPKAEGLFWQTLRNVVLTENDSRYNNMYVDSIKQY
Protocol: as §1, §2

Q: How did the IC50 (human TLR9) turn out when `COc1cc(-c2[nH]c3ccc(C4CCN(CCNC(=O)CCCCC(=O)NCCN5CCC(c6ccc7[nH]c(-c8cc(OC)c9ncnn9c8)c(C(C)C)c7c6)CC5)CC4)cc3c2C(C)C)cn2ncnc12` [Example 9, N1,N6-bis(2-(4-(3-isopropyl-2-(8-methoxy-[1,2,4]triazolo[1,5-a]pyridin-6-yl)-1H-indol-5-yl)piperidin-1-yl)ethyl)adipamide] was run?
A: 348 nM

Q: And the IC50 (human TLR7)?
A: 0.19 nM

Q: And the IC50 (human TLR8)?
A: 0.59 nM

Q: `COc1cc(-c2[nH]c3ccc(C4CCN(CCCCCCCCCCCCCCCCCCN5CCC(c6ccc7[nH]c(-c8cc(OC)c9ncnn9c8)c(C(C)C)c7c6)CC5)CC4)cc3c2C(C)C)cn2ncnc12` [Example 12, 1,18-bis(4-(3-isopropyl-2-(8-methoxy-[1,2,4]triazolo[1,5-a]pyridin-6-yl)-1H-indol-5-yl)piperidin-1-yl)octadecane] was tested. Which IC50 (human TLR9) did it give?
A: 13400 nM

Q: What about the IC50 (human TLR7) of the same compound?
A: 191 nM

Q: And the IC50 (human TLR8)?
A: 509 nM

Q: How did the IC50 (human TLR9) turn out when `COc1cc(-c2[nH]c3ccc(C4CCN(CCNC(=O)CCCCCCCCC(=O)NCCN5CCC(c6ccc7[nH]c(-c8cc(OC)c9ncnn9c8)c(C(C)C)c7c6)CC5)CC4)cc3c2C(C)C)cn2ncnc12` [Example 7, N1,N10-bis(2-(4-(3-isopropyl-2-(8-methoxy-[1,2,4]triazolo[1,5-a]pyridin-6-yl)-1H-indol-5-yl)piperidin-1-yl)ethyl)decanediamide] was run?
A: 98 nM

Q: What about the IC50 (human TLR7) of the same compound?
A: 0.14 nM

Q: And the IC50 (human TLR8)?
A: 0.24 nM

Q: Which results are given for `COc1cc(-c2[nH]c3ccc(C4CCN(CCNC(=O)CCCCCCCCCC(=O)NCCN5CCC(c6ccc7[nH]c(-c8cc(OC)c9ncnn9c8)c(C(C)C)c7c6)CC5)CC4)cc3c2C(C)C)cn2ncnc12` [Example 4, N1,N11-bis(2-(4-(3-isopropyl-2-(8-methoxy-[1,2,4]triazolo[1,5-a]pyridin-6-yl)-1H-indol-5-yl)piperidin-1-yl)ethyl)undecanediamide]?
A: IC50 (human TLR9): 94 nM; IC50 (human TLR7): 0.25 nM; IC50 (human TLR8): 0.22 nM

Q: `COc1cc(-c2[nH]c3ccc(C4CCN(CCNC(=O)CCCCCCCCCCCC(=O)NCCN5CCC(c6ccc7[nH]c(-c8cc(OC)c9ncnn9c8)c(C(C)C)c7c6)CC5)CC4)cc3c2C(C)C)cn2ncnc12` [Example 1, N1,N13-bis(2-(4-(3-isopropyl-2-(8-methoxy-[1,2,4]triazolo[1,5-a]pyridin-6-yl)-1H-indol-5-yl)piperidin-1-yl)ethyl)tridecanediamide] was tested. Which IC50 (human TLR9) did it give?
A: 121 nM

Q: And the IC50 (human TLR7)?
A: 0.92 nM

Q: What about the IC50 (human TLR8) of the same compound?
A: 1.4 nM

Q: With `COc1cc(-c2[nH]c3ccc(C4CCN(CCNC(=O)CCCCCCCCCCC(=O)NCCN5CCC(c6ccc7[nH]c(-c8cc(OC)c9ncnn9c8)c(C(C)C)c7c6)CC5)CC4)cc3c2C(C)C)cn2ncnc12` [Example 3, N1,N12-bis(2-(4-(3-isopropyl-2-(8-methoxy-[1,2,4]triazolo[1,5-a]pyridin-6-yl)-1H-indol-5-yl)piperidin-1-yl)ethyl)dodecanediamide] as the compound, how does the IC50 (human TLR9) read?
A: 99 nM

Q: What about the IC50 (human TLR7) of the same compound?
A: 0.31 nM

Q: And the IC50 (human TLR8)?
A: 0.32 nM

Q: How did the IC50 (human TLR9) turn out when `COc1cc(-c2[nH]c3ccc(C4CCN(CCNC(=O)CCCCCCC(=O)NCCN5CCC(c6ccc7[nH]c(-c8cc(OC)c9ncnn9c8)c(C(C)C)c7c6)CC5)CC4)cc3c2C(C)C)cn2ncnc12` [Example 6, N1,N8-bis(2-(4-(3-isopropyl-2-(8-methoxy-[1,2,4]triazolo[1,5-a]pyridin-6-yl)-1H-indol-5-yl)piperidin-1-yl)ethyl)octanediamide] was run?
A: 148 nM

Q: What about the IC50 (human TLR7) of the same compound?
A: 0.17 nM

Q: What about the IC50 (human TLR8) of the same compound?
A: 0.2 nM

Q: What does the source list for `COc1cc(-c2[nH]c3ccc(C4CCN(C(=O)CCCCCCCCCCCCCCCCCC(=O)N5CCC(c6ccc7[nH]c(-c8cc(OC)c9ncnn9c8)c(C(C)C)c7c6)CC5)CC4)cc3c2C(C)C)cn2ncnc12` [Comparator Compound C3, reference compound]?
A: IC50 (human TLR9): > 50000 nM; IC50 (human TLR7): > 3130 nM; IC50 (human TLR8): > 3130 nM

Q: Which results are given for `COc1cc(-c2[nH]c3ccc(C4CCN(C(=O)CCCCCCCCCCCCCCCCC(=O)N5CCC(c6ccc7[nH]c(-c8cc(OC)c9ncnn9c8)c(C(C)C)c7c6)CC5)CC4)cc3c2C(C)C)cn2ncnc12` [Comparator Compound C1, 1,18-bis(4-(3-isopropyl-2-(8-methoxy-[1,2,4]triazolo[1,5-a]pyridin-6-yl)-1H-indol-5-yl)piperidin-1-yl)octadecane-1,18-dione, reference compound]?
A: IC50 (human TLR9): > 50000 nM; IC50 (human TLR7): > 3130 nM; IC50 (human TLR8): ≥ 3130 nM
